From US20130065958A1, “METHODS FOR DISINFECTING OR STERILIZING ARTICLES” (priority 2011, published 2013)
Values joined by “and” are separate entries in the source; they are usually repeats but may differ in a detail not shown here. Equal values may be shown once. Read-outs that look alike come from different tables or passages of the source.

Tested on: Bacillus atrophaeus ATCC 9372 spores
Settings: 3 drops, overnight (15 hours) at 35 C
Procedure: Before sealing, the inside surface of the bottle cap (liner removed) or its foam liner had been inoculated with a 10 μL droplet of Bacillus atrophaeus ATCC 9372 spores dried down onto the cap or liner surface. Bacillus atrophaeus ATCC 9372 spores are known to be of relatively high resistance to peroxide disinfection and are a recommended (for example, the U.S. Pharmacopeia) resistant organism for disinfection studies using chemicals (such as peroxide or ethylene oxide) or dry heat.

## OO [3% hydrogen peroxide, hydrogen peroxide]
Inoculated on cap
  CFU Recovered: 425000 CFU and 475000 CFU
  Log Reduction: 1.2 and 1.1
Inoculated on liner
  CFU Recovered: 830000 CFU
  Log Reduction: 0.4
